Laboratory results: patent US5792775A (priority 1996, dated 1998)
Entries after “also recorded” stand apart in the source; their conditions may differ. Like-named read-outs stand apart in the source and are kept apart here.

Tests used:
[1] = biological target: T1, dopamine transporter (DAT) (Rattus norvegicus, UniProt P23977); experiment: Displacement of [^3 H]WIN 35,428 binding (Dopamine Transporter Binding Assay); conditions: for Ki: Table III, displacement of [^3 H]WIN 35,428, rat caudate putamen, % error in parentheses
T1 construct: brains removed to an ice-cooled dish for dissection of the caudate putamen; from tissue; host or cells: rat caudate putamen, washed membranes of male Sprague-Dawley rats (Taconic)

muscarinic m1 receptors = biological target: T2, muscarinic m1 receptors (Rattus norvegicus, UniProt P08482); experiment: biochemical; format: binding
T2 sequence (P08482 1-460): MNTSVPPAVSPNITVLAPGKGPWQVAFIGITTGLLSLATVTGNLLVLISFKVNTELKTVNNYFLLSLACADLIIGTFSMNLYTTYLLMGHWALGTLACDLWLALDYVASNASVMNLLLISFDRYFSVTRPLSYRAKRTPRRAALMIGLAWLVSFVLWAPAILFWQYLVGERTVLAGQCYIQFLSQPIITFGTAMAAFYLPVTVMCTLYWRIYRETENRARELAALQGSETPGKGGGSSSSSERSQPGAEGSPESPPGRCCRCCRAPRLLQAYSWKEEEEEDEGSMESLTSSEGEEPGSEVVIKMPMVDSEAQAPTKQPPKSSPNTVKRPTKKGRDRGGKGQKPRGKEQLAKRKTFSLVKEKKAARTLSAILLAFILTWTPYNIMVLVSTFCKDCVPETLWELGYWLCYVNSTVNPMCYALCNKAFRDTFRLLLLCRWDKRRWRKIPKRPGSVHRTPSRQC

[2] = biological target: serotonin transporter (5HTT) (Rattus norvegicus, UniProt P31652); experiment: Serotonin transporter binding ([^3 H]citalopram), NOVASCREEN
From the text: (§1) Serotonin (5-HTT), norepinephrine transporter (NET) and muscarinic m1 and m2 receptor binding data were provided by NOVASCREEN.

[3] = biological target: norepinephrine transporter (NET) (Rattus norvegicus, UniProt Q63380); experiment: biochemical; format: binding
[4] = test system: dopamine uptake, rat caudate putamen; format: biochemical
muscarinic m2 receptors = biological target: T3, muscarinic m2 receptors (Rattus norvegicus, UniProt P10980); experiment: Muscarinic m2 receptor binding ([^3 H]AFDX 384), NOVASCREEN; conditions: for muscarinic m2 affinity relative to dopamine transporter affinity: in words
T3 sequence (P10980 1-466): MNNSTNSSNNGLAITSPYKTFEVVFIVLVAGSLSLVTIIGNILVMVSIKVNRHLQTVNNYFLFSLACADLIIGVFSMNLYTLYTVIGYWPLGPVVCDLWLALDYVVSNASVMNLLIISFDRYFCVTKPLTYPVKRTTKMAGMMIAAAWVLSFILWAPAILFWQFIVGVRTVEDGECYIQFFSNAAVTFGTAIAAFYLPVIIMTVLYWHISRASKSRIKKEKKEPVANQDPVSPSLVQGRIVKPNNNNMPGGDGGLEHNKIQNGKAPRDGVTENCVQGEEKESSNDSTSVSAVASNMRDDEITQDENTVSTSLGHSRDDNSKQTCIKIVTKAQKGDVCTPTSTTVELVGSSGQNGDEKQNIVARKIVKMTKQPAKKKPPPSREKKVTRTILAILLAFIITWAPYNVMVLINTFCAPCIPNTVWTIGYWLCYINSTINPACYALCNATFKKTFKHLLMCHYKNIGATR
From the text: as §1

[5] = Table III, footnote d, read-out: 5HTT Ki value in nM (bracketed)
[6] = Table V, rat caudate putamen, read-out: [^3 H]DA Uptake Inhibition IC50
[7] = Table IV, head prints no unit, IC50 in nM, read-out: [^3 H]DAU (inhibition of [^3 H]-Dopamine Uptake)
[8] = read-out: NET, % Inhibition at 10 μM

Sequence of serotonin transporter (5HTT) (P31652 whole entry): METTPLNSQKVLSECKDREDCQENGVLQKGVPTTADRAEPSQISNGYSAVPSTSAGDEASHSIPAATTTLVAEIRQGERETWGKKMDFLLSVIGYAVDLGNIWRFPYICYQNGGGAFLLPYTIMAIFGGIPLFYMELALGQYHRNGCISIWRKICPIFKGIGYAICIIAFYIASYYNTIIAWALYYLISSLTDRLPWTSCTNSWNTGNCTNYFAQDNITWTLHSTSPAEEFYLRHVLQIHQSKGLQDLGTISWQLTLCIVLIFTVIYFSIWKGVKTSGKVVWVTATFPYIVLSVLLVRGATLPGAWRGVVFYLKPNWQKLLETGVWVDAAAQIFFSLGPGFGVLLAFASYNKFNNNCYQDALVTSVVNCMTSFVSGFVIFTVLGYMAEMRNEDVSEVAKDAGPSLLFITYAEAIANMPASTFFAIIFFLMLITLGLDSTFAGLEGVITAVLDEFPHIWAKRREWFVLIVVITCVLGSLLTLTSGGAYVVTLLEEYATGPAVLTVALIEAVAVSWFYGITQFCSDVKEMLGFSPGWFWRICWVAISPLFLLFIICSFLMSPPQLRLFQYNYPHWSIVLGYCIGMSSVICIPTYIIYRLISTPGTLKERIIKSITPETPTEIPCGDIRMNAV
Sequence of norepinephrine transporter (NET) (Q63380 1-617): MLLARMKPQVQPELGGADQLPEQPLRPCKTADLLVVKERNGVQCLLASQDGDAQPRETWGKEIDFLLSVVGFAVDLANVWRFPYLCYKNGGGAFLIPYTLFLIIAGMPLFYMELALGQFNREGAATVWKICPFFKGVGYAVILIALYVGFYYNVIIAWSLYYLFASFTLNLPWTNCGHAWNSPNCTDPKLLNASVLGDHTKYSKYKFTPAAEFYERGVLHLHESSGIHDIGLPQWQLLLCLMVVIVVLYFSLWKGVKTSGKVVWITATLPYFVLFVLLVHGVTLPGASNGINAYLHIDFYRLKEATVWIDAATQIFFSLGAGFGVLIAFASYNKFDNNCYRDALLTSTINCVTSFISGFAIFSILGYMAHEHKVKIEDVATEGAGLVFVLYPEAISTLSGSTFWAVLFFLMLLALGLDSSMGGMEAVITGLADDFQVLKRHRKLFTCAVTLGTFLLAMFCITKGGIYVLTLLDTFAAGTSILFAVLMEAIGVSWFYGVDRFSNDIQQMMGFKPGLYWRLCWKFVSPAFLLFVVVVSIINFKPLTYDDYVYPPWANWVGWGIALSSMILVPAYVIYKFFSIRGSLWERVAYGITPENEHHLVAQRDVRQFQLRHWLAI
T1 sequence (P23977 whole entry): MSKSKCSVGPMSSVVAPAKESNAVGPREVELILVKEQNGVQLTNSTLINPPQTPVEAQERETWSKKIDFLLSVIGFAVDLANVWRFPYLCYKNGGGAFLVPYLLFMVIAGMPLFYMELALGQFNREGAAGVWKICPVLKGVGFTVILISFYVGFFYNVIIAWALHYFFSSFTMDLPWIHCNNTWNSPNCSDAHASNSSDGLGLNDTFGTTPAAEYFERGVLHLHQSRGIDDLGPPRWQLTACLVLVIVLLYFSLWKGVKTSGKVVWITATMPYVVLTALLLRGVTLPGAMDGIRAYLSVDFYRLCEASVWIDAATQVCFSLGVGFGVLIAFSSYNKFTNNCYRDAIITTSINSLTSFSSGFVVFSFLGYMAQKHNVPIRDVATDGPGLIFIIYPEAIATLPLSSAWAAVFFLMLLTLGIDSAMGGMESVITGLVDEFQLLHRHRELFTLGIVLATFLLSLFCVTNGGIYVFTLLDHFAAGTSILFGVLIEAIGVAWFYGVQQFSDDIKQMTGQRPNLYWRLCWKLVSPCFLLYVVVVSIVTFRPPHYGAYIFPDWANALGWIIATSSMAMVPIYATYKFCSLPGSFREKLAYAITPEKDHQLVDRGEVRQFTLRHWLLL

| Compound | Ki [1] [nM] | Ki (muscarinic m1 receptors; Table III, read-out: m1, Ki) [nM] | inhibition at 10 µM ([2]; read-out: 5HTT (% I@10 μM)) [%] | inhibition at 10 µM ([3]; read-out: NET (% I@10 μM)) [%] | IC50 [4, 6] [nM] | Ki (muscarinic m2 receptors; Table III) [nM] | IC50 [4, 7] [nM] | also measured |
| --- | --- | --- | --- | --- | --- | --- | --- | --- |
| CN1[C@@H]2CC[C@H]1C[C@@H](OC(c1ccccc1)c1ccc(Cl)c(Cl)c1)C2 (stereo partly drawn) [Compound 7k] | 22.1 | 12.5 | 66.2 | 56.5 | 47 | 141 | – | Ki [2, 5]: > 1790 nM; Ki ([3]; read-out: NET Ki value in nM (bracketed), Table III, footnote d): > 4870 nM |
| COC(=O)[C@H]1[C@@H](c2ccc(F)cc2)C[C@@H]2CC[C@H]1N2C [[^3 H]WIN 35,428, 2β-carbomethoxy-3β-(4-fluorophenyl)tropane, reference compound] | – | – | – | – | – | – | – | Bmax, high affinity component of [^3 H]WIN 35,428 binding ([1]; high affinity component, LIGAND analysis): 445±338 fmol/mg protein; Bmax, low affinity component of [^3 H]WIN 35,428 binding ([1]; low affinity component, LIGAND analysis): 1995±559 fmol/mg protein |
| CN1[C@@H]2CC[C@H]1C[C@@H](OC(c1ccccc1)c1ccc(Br)cc1)C2 (stereo partly drawn) [Compound 7h] | 37.9 | 3.7 | 39 | 37 | 29 | 39.1 | – | – |
| CN1[C@@H]2CC[C@H]1C[C@@H](OC(c1ccc(F)cc1)c1ccc(Cl)c(Cl)c1)C2 (stereo partly drawn) [Compound 7l] | 18.9 | 33 | 80.3 | 57.8 | 24 | 369 | – | Ki [2, 5]: > 691 nM; Ki [3]: > 9000 nM |
| Fc1ccc(C(O[C@H]2C[C@H]3CC[C@@H](C2)N3CCCc2ccccc2)c2ccc(F)cc2)cc1 [JHW 010] | – | – | – | – | – | – | 227 | Ki (muscarinic m1 receptors): 273 nM; Ki (muscarinic m2 receptors; Table IV): 499 nM |
| COC(=O)[C@H]1[C@@H](OC(=O)c2ccccc2)C[C@@H]2CC[C@H]1N2C [cocaine, reference compound] | – | – | – | – | – | – | – | mode of displacement of [^3 H]WIN 35,428 binding ([1]; monophasic vs. biphasic): biphasic displacement; also recorded: revealed two binding sites |
| COc1ccc(C(O[C@H]2C[C@H]3CC[C@@H](C2)N3C)c2ccccc2)cc1 (stereo partly drawn) [Compound 7d, 4'-methoxy-3α-(diphenylmethoxy)tropane] | – | 4.2 | 30.5 | 30.9 | 468 | 18.9 | – | – |
| Fc1ccc(CN2[C@@H]3CC[C@H]2C[C@@H](OC(c2ccc(F)cc2)c2ccc(F)cc2)C3)cc1 [JKW 009] | – | – | – | – | – | – | 204 | Ki (muscarinic m1 receptors): 0.45 nM; Ki [2]: 53.4 nM; inhibition at 10 µM [3, 8]: 60% |
| Cc1ccc(C(O[C@H]2C[C@H]3CC[C@@H](C2)N3C)c2ccc(C)cc2)cc1 [Compound 7o] | 420 | 47.2 | 35.5 | 35.1 | 2540 | 716 | – | – |
| CN1[C@@H]2CC[C@H]1C[C@@H](OC(c1ccccc1)c1ccc(C#N)cc1)C2 (stereo partly drawn) [Compound 7g] | 196 | – | 40 | 16 | 222 | 74 | – | Ki (muscarinic m1 receptors; read-out: m1, Ki): 7.1 nM |
| O=CN1[C@@H]2CC[C@H]1C[C@@H](OC(c1ccc(F)cc1)c1ccc(F)cc1)C2 [AHN 2-032] | – | – | – | – | – | – | 5380 | inhibition at 10 µM (muscarinic m1 receptors; Table IV footnote b, 10 μM): 54%; inhibition at 10 µM ([2]; Table IV footnote b, 10 μM, read-out: 5HHT, % Inhibition at 10 μM): 1.6%; inhibition at 10 µM [3, 8]: 29%; inhibition at 10 µM (muscarinic m2 receptors; Table IV footnote b, read-out: m2, % Inhibition at 10 μM): 62% |
| Fc1ccc(C(O[C@H]2C[C@H]3CC[C@@H](C2)N3)c2ccc(F)cc2)cc1 [AHN 2-003, N-nor-4',4"-difluorobenztropine] | – | – | – | – | – | – | 10 | Ki (muscarinic m1 receptors; Table IV, read-out: m1, Ki): 90.7 nM; Ki [3]: > 8000 nM; Ki (muscarinic m2 receptors; Table IV): 620 nM |
| CN1[C@@H]2CC[C@H]1C[C@@H](OC(c1ccccc1)c1ccc(Cl)cc1)C2 (stereo partly drawn) [Compound 7a, 4'-Cl-3α-(diphenylmethoxy)tropane] | – | – | 34 | 32 | 115 | – | – | – |
| Fc1ccc(C(O[C@H]2C[C@H]3CC[C@@H](C2)N3CC2CC2)c2ccc(F)cc2)cc1 [JHW 013] | – | – | – | – | – | – | 180 | Ki (muscarinic m1 receptors; Table IV, read-out: m1, Ki): 7.7 nM; Ki [2]: 53.4 nM; Ki [3]: 117 nM |
| Fc1ccc(C(O[C@H]2C[C@H]3CC[C@@H](C2)N3CC=Cc2ccccc2)c2ccc(F)cc2)cc1 [AHN 2-006] | – | – | – | – | – | – | 184 | Ki (muscarinic m1 receptors): 240 nM; Ki [2]: 1490 nM; Ki [3]: 577 nM; Ki (muscarinic m2 receptors; Table IV): 1590 nM |
| CN1[C@@H]2CC[C@H]1C[C@@H](OC(c1ccccc1)c1ccc(C(F)(F)F)cc1)C2 (stereo partly drawn) [Compound 7m] | 635 | 5.4 | 49.1 | 34.6 | 2160 | 1510 | – | selectivity for m1 over m2 sites (muscarinic m1 receptors; m1 vs. m2): ~300 fold |
| COc1ccc(C(O[C@H]2C[C@H]3CC[C@@H](C2)N3C)c2ccc(OC)cc2)cc1 [Compound 7e] | – | 39.6 | 31 | 34 | 2880 | 1000 | – | – |
| Fc1ccc(C(O[C@H]2C[C@H]3CC[C@@H](C2)N3Cc2ccccc2)c2ccc(F)cc2)cc1 [JHW 005] | – | – | – | – | – | – | 285 | Ki (muscarinic m1 receptors; Table IV, read-out: m1, Ki): 2490 nM; muscarinic m1 affinity relative to dopamine transporter affinity (muscarinic m1 receptors; in words): significantly lower binding affinities at the muscarinic m1 and m2 receptors as compared to binding affinities at the dopamine transporter; Ki [2]: 1810 nM; Ki (muscarinic m2 receptors; Table IV): 276 nM; muscarinic m2 affinity relative to dopamine transporter affinity (muscarinic m2 receptors): significantly lower binding affinities at the muscarinic m1 and m2 receptors as compared to binding affinities at the dopamine transporter |
| CCCCN1[C@@H]2CC[C@H]1C[C@@H](OC(c1ccc(F)cc1)c1ccc(F)cc1)C2 [JHW 007] | – | – | – | – | – | – | – | Ki (muscarinic m1 receptors): 527 nM; muscarinic m1 affinity relative to dopamine transporter affinity (muscarinic m1 receptors): significantly lower binding affinities at the muscarinic m1 and m2 receptors as compared to binding affinities at the dopamine transporter; IC50 ([4]; Table IV footnote d: biphasic inhibition curve, IC50 in nM, read-out: [^3 H]DAU (inhibition of [^3 H]-Dopamine Uptake), biphasic inhibition curve): 371 nM; Ki (muscarinic m2 receptors; Table IV): 308 nM; muscarinic m2 affinity relative to dopamine transporter affinity (muscarinic m2 receptors): significantly lower binding affinities at the muscarinic m1 and m2 receptors as compared to binding affinities at the dopamine transporter |
| CN1[C@@H]2CC[C@H]1C[C@@H](OC(c1ccc(Cl)cc1)c1ccc(Cl)cc1)C2 [Compound 7b] | – | – | – | 43 | – | 1490 | – | Ki [3]: > 6000 nM |
| CN1[C@@H]2CC[C@H]1C[C@@H](OC(c1ccccc1)c1ccc(O)cc1)C2 (stereo partly drawn) [Compound 7r, 3α-4'-Hydroxy-(diphenylmethoxy)tropane] | 297 | 2.1 | 23.3 | 27.3 | 677 | 17.7 | – | – |
| Cc1ccc(C(O[C@H]2C[C@H]3CC[C@@H](C2)N3C)c2ccccc2)cc1 (stereo partly drawn) [Compound 7p] | 187 | 2.7 | 35.4 | 31.8 | 512 | 37.5 | – | – |
| C=CCN1[C@@H]2CC[C@H]1C[C@@H](OC(c1ccc(F)cc1)c1ccc(F)cc1)C2 [AHN 2-005, N-allyl-4',4"-difluorobenztropine] | – | – | – | – | – | – | 14 | Ki (muscarinic m1 receptors; Table IV, read-out: m1, Ki): 89.1 nM; Ki [2]: 1970 nM; inhibition at 10 µM [3, 8]: 22.1%; Ki (muscarinic m2 receptors; Table IV): 254 nM |
| CN1[C@@H]2CC[C@H]1C[C@@H](OC(c1ccccc1)c1ccc(C(C)(C)C)cc1)C2 (stereo partly drawn) [Compound 7n] | – | 148 | 24.7 | 37.6 | 4460 | – | – | inhibition at 10 µM (muscarinic m2 receptors; Table III footnote b, read-out: m2, % Inhibition of radiolabeled ligand binding): 54% |
| CN1[C@@H]2CC[C@H]1C[C@@H](OC(c1ccccc1)c1ccc([N+](=O)[O-])cc1)C2 (stereo partly drawn) [Compound 7f] | 197 | 7.1 | 54 | 29 | 219 | 41.9 | – | Ki [2, 5]: > 3570 nM |
| CN1[C@@H]2CC[C@H]1C[C@@H](OC(c1ccccc1)c1ccc(F)cc1)C2 (stereo partly drawn) [Compound 7j] | – | 1.1 | 35.2 | 37.9 | – | 15 | – | – |
